Assay results reported in ChEMBL document CHEMBL1201862, “PubChem BioAssay data set” (2004).
Active and inactive are the calls of the source.

Assays:
Cytochrome P450 2C19 = Cytochrome P450 2C19 (Homo sapiens, UniProt P33261); assay: Cytochrome panel assay with activity outcomes. Panel member name: p450-cyp2c19 Compounds with AC50 equal or less than 10 uM are considered active; type: functional; conditions: read-out: AC50
Cytochrome P450 2C9 = Cytochrome P450 2C9 (Homo sapiens, UniProt P11712)
Fatty acid synthase [1] = biological target: T1, Fatty acid synthase (Homo sapiens, UniProt P49327); assay: FAS thioesterase domain inhibitors, dose response, biochemical, endpoint fluorescence intensity, uHTS hits (AID 624327); type: functional;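 further: fluorescence from hydrolysis of an O-methyl fluorescein acyl ester substrate by the enzyme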
Fatty acid synthase [2] = biological target: T1, Fatty acid synthase; assay: FAS thioesterase domain inhibitors, dose response, biochemical, kinetic fluorescence intensity (AID 624326); type: functional;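 further: rate of fluorescence rise from hydrolysis of a fluorogenic O-methyl fluorescein ester substrate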
Cytochrome P450 3A4 [3] = biological target: T2, Cytochrome P450 3A4 (Homo sapiens, UniProt P08684); conditions: Potency
cells [4] = type: functional, cell-based
cells [5] = type: functional, cell-based; remark: listed apart in the source
Estrogen receptor = biological target: T3, Estrogen receptor (Homo sapiens, UniProt P03372);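 further: potency for inhibiting coactivator peptide recruitment to the receptor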
T3 sequence (P03372 whole entry): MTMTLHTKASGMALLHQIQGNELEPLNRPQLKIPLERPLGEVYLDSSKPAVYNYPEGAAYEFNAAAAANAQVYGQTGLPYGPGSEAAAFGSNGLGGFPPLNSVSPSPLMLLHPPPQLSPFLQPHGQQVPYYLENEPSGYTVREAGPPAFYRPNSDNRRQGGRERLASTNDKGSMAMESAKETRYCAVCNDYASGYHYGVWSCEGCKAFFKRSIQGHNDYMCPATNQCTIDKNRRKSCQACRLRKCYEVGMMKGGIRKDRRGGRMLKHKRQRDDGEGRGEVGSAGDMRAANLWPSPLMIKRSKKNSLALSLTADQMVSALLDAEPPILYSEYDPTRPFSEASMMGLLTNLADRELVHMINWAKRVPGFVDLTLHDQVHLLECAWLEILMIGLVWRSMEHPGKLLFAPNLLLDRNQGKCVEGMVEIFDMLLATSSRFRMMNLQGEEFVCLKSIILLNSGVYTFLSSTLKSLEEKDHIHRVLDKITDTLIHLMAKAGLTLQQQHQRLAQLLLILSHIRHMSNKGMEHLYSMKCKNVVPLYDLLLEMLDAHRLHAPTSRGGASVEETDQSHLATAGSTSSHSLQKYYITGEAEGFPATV

[6] = THP-1 cell cytotoxicity, dose response, cytotoxicity control for Vif-APOBEC3G degradation inhibitor project, THP-1 cells (AID 1117359); type: functional; conditions: Human immunodeficiency virus 1, THP-1
[7] = growth suppression of beta-catenin-knockout colon cells, dose response, cell-based, HCT116, human colon tumor (AID 1045); type: functional;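 further: HCT116 colon tumor cells with beta catenin knocked out; cells exposed to compound for 60 hours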
[8] = biological target: Induced myeloid leukemia cell differentiation protein Mcl-1 (Homo sapiens, UniProt Q07820); type: functional
[9] = biological target: T4, Carboxy-terminal domain RNA polymerase II polypeptide A small phosphatase 1 (Homo sapiens, UniProt Q9GZU7); assay: inhibitors of CTDSP1, concentration-response testing, biochemical assay, absorbance-based, actives from ultra-high-throughput screening (AID 540297); type: functional
T4 sequence (Q9GZU7 whole entry): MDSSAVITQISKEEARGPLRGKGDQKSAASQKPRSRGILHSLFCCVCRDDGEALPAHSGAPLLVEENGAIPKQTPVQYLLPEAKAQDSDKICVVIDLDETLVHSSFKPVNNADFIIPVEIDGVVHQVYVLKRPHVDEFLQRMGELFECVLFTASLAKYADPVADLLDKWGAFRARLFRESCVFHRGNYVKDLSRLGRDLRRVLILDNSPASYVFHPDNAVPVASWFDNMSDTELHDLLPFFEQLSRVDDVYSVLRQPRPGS

Cytochrome P450 1A2 = biological target: T5, Cytochrome P450 1A2 (Homo sapiens, UniProt P05177);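 further: PubChem cytochrome P450 panel assay, CYP1A2 panel member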
T5 sequence (P05177 whole entry): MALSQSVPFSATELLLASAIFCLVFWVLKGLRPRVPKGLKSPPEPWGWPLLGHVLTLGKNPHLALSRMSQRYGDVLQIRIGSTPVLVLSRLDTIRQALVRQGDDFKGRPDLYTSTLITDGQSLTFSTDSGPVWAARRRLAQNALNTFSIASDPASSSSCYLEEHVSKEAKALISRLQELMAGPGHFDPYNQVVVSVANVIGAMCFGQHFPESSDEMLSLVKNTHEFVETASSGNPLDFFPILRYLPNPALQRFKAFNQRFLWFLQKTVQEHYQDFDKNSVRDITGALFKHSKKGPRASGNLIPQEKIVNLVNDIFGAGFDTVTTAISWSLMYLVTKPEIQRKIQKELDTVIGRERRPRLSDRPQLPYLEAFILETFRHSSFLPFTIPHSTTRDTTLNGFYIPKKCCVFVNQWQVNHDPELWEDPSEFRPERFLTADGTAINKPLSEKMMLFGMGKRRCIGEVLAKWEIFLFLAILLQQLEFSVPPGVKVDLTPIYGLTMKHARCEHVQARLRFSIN

Cytochrome P450 3A4 [10] = biological target: T2, Cytochrome P450 3A4
[11] = inhibitors of HIV Env-driven cell fusion, dose response, cherry-pick (AID 652057); type: functional, cell-based
[12] = ZM109 Env clade C HIV-1 fusion inhibitors, dose response, HeLa effector, CEM target cells, luciferase, cherry-pick (AID 652058); type: functional, cell-based
[13] = off-target signal loss in HeLa-CEM21 co-culture – HeLa F-luc CTL cells, cherry-picked, counter-screen for HIV-1 Env fusion inhibitor project, dose response (AID 652040); type: functional, cell-based;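 further: potency for signal decrease marking cytotoxic or nonspecific inhibition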
[14] = inhibitors of clade B AD8 Env fusion, dose response, cell-based, cherry-pick (AID 652062); type: functional;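 further: luciferase signal from cell-cell fusion driven by HIV-1 clade B AD8 Env; potency is for inhibitors of fusion seen as a drop in luminescence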
[15] = LGR2 antagonists, dose response, cell-based, HEK293, CRE-luciferase reporter, cherry pick, set 2 (AID 743343); type: functional;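 further: transfected cells were stimulated with diluted bursicon conditioned medium after compound addition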
[16] = MC4R antagonists, dose response, counter-screen for LGR2 antagonist project, cell-based, plate reader, cherry pick (AID 743444); type: functional;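 further: transfected HEK 293 cells stimulated with alpha-MSH peptide; potency of inhibitors of the alpha-MSH evoked signal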
Cytochrome P450 2D6 = Cytochrome P450 2D6 (Homo sapiens, UniProt P10635);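 further: CYP2D6 member of a cytochrome P450 panel assay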
Paired box protein Pax-8 = Paired box protein Pax-8 (Homo sapiens, UniProt Q06710); assay: inhibitors of PAX8-driven TPO luciferase reporter, dose response, RMG-I cells, cherry-pick (AID 687027); type: functional, cell-based;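 further: luciferase reporter driven by Pax8 target thyroperoxidase promoter measured by SteadyGlo luminescence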
[17] = cytotoxicity in OVCAR8 ovarian cancer cells, dose response, PAX8 project, cell-based, plate reader, dry powder samples (AID 743197); type: functional; conditions: OVCAR-8
[18] = P. falciparum 3D7-ScDHODH growth inhibitors, dose response, SYBR Green, dry powder samples (AID 1159570); type: functional, cell-based;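 further: parasite growth measured after 72 hours of compound exposure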
[19] = HepG2 cell cytotoxicity, dose response, cytotoxicity control, plate reader, dry powder samples (AID 1159569); type: functional, cell-based;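 further: inhibitor potency with signal falling toward the positive control level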
[20] = P. falciparum Dd2 growth inhibitors, dose response, SYBR Green, cherry-picked samples (AID 1159567); type: functional, cell-based
[21] = P. falciparum Dd2 growth inhibitors, dose response, SYBR Green, dry powder samples (AID 1159566); type: functional, cell-based;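 further: potency for growth inhibition with lower SYBR green DNA signal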
[22] = P. falciparum ATP4 D1247Y mutant growth inhibitors, dose response, NITD609-resistant line, SYBR Green, dry powder (AID 1159571); type: functional, cell-based;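 further: parasites synchronized at ring stage by sorbitol before testing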
Nonstructural protein 1 = Nonstructural protein 1 (Influenza A virus, UniProt Q194T2); type: functional, Influenza A virus (A/California/07/2009(H1N1))

Sequence of Paired box protein Pax-8 (Q06710 whole entry): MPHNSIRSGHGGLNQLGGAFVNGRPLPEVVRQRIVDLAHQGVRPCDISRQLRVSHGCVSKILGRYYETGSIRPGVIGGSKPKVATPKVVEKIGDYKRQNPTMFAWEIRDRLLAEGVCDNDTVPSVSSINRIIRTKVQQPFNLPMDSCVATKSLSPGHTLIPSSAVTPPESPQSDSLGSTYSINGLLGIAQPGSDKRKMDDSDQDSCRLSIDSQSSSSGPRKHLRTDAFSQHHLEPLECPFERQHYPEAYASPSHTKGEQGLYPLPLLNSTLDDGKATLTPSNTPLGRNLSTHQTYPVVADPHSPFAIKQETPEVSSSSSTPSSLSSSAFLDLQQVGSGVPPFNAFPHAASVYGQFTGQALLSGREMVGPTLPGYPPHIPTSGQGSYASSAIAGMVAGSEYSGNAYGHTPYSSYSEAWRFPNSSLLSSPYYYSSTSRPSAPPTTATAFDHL
Sequence of Cytochrome P450 2C9 (P11712 whole entry, the tested form may be a part): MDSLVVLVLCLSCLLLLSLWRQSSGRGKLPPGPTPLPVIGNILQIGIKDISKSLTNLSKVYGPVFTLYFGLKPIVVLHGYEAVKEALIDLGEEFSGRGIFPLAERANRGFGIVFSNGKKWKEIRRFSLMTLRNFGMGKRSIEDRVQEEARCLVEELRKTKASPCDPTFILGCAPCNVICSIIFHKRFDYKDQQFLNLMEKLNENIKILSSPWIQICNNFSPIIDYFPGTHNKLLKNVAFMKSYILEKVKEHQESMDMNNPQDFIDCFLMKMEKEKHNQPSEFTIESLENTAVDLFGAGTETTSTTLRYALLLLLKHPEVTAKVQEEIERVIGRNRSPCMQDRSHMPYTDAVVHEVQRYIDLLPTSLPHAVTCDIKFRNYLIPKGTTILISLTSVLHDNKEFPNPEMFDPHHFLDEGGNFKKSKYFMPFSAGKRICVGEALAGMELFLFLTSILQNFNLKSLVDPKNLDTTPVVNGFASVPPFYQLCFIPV
T1 sequence (P49327 whole entry, the tested form may be a part): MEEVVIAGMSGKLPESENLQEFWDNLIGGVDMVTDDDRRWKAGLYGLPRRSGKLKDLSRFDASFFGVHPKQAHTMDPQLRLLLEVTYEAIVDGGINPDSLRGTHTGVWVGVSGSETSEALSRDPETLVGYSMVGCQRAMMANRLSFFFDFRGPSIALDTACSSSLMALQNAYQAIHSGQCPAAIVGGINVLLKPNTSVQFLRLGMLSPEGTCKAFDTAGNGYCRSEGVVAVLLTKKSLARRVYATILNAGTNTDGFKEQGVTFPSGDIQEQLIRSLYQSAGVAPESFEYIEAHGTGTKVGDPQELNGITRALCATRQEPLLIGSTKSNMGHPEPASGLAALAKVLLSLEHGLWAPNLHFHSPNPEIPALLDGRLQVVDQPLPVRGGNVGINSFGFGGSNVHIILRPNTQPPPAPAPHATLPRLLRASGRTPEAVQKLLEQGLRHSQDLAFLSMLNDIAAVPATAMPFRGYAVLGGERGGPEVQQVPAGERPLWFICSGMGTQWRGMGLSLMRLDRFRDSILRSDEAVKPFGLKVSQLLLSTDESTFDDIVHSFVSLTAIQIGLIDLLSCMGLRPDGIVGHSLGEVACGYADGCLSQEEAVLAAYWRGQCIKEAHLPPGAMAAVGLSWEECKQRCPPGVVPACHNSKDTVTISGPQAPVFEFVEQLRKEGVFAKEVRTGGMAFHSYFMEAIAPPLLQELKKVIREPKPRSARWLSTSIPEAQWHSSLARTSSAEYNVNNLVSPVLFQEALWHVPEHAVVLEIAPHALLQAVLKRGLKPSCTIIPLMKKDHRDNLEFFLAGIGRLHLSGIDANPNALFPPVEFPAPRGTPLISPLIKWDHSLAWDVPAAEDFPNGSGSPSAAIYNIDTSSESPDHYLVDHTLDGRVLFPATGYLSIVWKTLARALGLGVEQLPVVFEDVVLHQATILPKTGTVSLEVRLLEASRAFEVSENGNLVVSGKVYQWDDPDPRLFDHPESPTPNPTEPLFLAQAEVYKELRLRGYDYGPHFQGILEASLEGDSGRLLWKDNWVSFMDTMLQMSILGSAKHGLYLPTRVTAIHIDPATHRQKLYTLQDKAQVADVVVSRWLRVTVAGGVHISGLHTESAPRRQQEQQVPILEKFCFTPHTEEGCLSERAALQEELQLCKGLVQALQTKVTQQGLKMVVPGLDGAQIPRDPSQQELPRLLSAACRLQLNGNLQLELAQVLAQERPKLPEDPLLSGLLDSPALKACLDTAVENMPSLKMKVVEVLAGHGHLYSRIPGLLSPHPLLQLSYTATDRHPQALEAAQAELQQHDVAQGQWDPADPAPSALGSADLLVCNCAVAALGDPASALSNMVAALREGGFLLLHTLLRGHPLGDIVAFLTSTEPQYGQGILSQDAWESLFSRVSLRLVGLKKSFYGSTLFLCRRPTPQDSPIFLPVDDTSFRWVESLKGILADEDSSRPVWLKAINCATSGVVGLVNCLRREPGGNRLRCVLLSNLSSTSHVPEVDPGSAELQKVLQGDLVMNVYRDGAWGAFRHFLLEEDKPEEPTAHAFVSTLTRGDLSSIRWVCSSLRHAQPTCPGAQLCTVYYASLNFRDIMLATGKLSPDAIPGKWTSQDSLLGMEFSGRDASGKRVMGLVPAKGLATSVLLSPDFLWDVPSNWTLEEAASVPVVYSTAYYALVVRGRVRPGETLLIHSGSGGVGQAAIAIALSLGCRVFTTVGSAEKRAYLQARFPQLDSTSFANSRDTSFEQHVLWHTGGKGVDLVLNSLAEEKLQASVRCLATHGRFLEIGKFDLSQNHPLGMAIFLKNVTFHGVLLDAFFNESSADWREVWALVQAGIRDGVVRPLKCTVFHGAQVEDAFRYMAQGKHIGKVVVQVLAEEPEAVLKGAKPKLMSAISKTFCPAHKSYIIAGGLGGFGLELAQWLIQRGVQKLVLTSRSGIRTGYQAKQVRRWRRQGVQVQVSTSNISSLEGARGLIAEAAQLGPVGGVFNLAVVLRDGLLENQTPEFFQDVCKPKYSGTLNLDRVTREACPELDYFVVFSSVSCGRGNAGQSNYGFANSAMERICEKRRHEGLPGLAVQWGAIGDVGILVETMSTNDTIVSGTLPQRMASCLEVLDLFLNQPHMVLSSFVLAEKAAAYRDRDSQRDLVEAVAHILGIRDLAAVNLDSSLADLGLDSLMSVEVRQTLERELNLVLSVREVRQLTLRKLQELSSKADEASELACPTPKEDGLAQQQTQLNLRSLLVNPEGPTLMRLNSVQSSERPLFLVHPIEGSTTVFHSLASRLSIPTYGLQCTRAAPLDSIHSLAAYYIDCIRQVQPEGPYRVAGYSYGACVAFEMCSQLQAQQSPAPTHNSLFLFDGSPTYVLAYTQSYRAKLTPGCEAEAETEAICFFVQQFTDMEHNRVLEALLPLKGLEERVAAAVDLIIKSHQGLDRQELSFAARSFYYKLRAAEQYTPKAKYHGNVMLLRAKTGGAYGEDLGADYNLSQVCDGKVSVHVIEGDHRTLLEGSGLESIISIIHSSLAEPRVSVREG
T2 sequence (P08684 whole entry): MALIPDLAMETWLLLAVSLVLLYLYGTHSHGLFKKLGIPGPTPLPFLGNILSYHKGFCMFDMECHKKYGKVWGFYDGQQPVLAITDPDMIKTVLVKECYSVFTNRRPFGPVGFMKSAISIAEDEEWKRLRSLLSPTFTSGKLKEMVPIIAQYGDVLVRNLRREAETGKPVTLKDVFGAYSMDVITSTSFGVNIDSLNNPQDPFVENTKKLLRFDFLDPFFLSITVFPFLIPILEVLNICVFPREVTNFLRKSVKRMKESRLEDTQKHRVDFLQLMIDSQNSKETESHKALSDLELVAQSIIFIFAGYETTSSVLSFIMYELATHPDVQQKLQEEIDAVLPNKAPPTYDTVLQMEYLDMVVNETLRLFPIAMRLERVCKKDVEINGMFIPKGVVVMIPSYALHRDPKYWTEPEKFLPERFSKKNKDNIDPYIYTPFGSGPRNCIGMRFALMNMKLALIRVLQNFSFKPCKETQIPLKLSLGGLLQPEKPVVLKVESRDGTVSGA
Sequence of Cytochrome P450 2C19 (P33261 whole entry): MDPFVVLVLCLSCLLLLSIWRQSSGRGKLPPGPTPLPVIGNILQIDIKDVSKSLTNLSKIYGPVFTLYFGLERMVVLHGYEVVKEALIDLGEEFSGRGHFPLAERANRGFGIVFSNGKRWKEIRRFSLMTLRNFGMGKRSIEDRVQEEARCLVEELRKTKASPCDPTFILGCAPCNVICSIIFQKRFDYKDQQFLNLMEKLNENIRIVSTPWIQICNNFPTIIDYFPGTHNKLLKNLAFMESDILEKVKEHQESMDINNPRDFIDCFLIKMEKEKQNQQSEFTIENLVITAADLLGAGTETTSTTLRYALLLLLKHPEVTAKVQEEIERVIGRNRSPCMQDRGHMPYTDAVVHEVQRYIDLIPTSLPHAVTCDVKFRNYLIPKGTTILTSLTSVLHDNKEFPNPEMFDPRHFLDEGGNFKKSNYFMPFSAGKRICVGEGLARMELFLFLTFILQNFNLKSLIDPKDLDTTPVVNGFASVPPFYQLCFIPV
Sequence of Cytochrome P450 2D6 (P10635 whole entry): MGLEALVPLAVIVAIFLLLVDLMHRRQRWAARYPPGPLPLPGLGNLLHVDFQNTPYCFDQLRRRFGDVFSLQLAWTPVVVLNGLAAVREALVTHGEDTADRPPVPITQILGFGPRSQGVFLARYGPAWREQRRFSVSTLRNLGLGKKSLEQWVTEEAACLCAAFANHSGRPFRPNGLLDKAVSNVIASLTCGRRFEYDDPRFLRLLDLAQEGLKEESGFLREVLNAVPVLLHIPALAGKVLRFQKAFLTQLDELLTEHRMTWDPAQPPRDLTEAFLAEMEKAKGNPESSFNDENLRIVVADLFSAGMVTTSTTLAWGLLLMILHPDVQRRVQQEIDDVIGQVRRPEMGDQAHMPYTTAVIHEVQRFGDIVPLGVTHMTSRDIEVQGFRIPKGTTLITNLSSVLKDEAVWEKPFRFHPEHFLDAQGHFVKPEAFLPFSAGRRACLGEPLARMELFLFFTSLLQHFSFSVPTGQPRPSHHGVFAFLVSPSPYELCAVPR

## O=C(Nc1cccn2ncnc12)c1ccc(Cl)cc1Cl
Cytochrome P450 2C19
  AC50: 11.2 µM (inconclusive)
Cytochrome P450 2C9
  AC50: inconclusive

## CNC(=O)/C(=C\C=C\c1ccccc1)NC(=O)c1ccc([N+](=O)[O-])cc1
Fatty acid synthase [1]
  IC50: 0.786 µM (active)
Fatty acid synthase [2]
  IC50: 0.809 µM (active)

## C=CCC1(C)OC=Cc2nc3cc(Cl)c(Cl)cc3nc21 (configuration not stated)
Cytochrome P450 3A4 [3]
  AC50: 3.98 µM (inconclusive)

## C=CCN(c1ccccc1)S(=O)(=O)c1cccc(C(=O)Nc2ncccc2O)c1
Cells [4]
  EC50: > 350 µM (not active)
Cells [5]
  EC50: > 350 µM (not active)

## O=C(CCC(=O)c1cccs1)Nc1nnc(C2CC2)s1
Estrogen receptor
  IC50: > 50 µM (not active)

## Cn1nc(C(=O)NCCCN2CCCCC2)c2c1-c1ccccc1S(=O)(=O)C2
Cells [4]
  EC50: > 350 µM (not active)
Cells [5]
  EC50: > 350 µM (not active)

## Clc1ccc(CN2CCCN(Cc3ccc(Cl)cc3)C2c2cc3ccccc3c3ccccc23)cc1
Cytochrome P450 2C9
  AC50: inconclusive

## O=C(Nc1ccc2oc(-c3ccccc3F)nc2c1)c1cncc(Br)c1
Estrogen receptor
  IC50: 15.5 µM (active)

## CCCn1c(C)nc2c(Nc3ccccc3)nc(C)nc21
Cytochrome P450 3A4 [3]
  AC50: 31.6 µM (inconclusive)

## CCN(CC)S(=O)(=O)c1ccc(/C=C/C(=O)Nc2ccc(N3CCOCC3)cc2)cc1
[6]
  CC50: > 40 µM (active)

## Cn1c(=O)c2nc(COc3ccc(C(C)(C)C)cc3)[nH]c2n(C)c1=O
Fatty acid synthase [1]
  IC50: 4.28 µM (active)
Fatty acid synthase [2]
  IC50: 6.26 µM (active)

## CCN(CC)c1ccc(NC2=C(Cl)C(=O)c3ccccc3C2=O)cc1
[7]
  EC50: 1 µM (active)
[8]
  IC50: 1.47 µM (active)
[6]
  CC50: 4.24 µM (active)

## O=C(CCCCCN1C(=O)c2ccccc2C1=O)Nc1ccc2c(c1)OCCO2
Cells [4]
  EC50: > 350 µM (not active)
Cells [5]
  EC50: > 350 µM (not active)

## Cc1cc(C)cc(NC(=O)c2cccc(NC(=O)c3ccco3)c2)c1
Cells [4]
  EC50: > 350 µM (not active)
Cells [5]
  EC50: 34.9 µM (active)

## CCOC(=O)C1=CC[C@H]2c3c(c4ccccc4n3C)C(=O)C1N2C(=O)OC(C)(C)C
Fatty acid synthase [1]
  IC50: 10.8 µM (active)
Fatty acid synthase [2]
  IC50: 11.9 µM (active)

## COc1ccc2cc(C(=O)Nc3ccc(F)cc3)sc(=O)c2c1OC
[9]
  IC50: 6.77 µM (active)
Cytochrome P450 2C9
  AC50: inconclusive

## Oc1ccc(Cn2cc[nH]c2=S)cc1
Cytochrome P450 1A2
  AC50: 6.31 µM (inconclusive)
Cytochrome P450 3A4 [10]
  AC50: 15.8 µM (inconclusive)
Cytochrome P450 2C9
  AC50: inconclusive

## CCCCN1CC(=O)N2[C@H]3c4ccccc4OC[C@@H]3[C@H](c3ccccc3)[C@]2(C)C1=O
[11]
  AC50: 3.64 µM (active)
[12]
  AC50: 0.448 µM (active)
[13]
  AC50: 4.48 µM (active)
[14]
  AC50: 29.7 µM (active)

## O=C(O)c1ccc(-c2noc(-c3ccccc3Cl)n2)cc1
[15]
  AC50: 28.3 µM (active)
[16]
  AC50: 32.9 µM (active)

## CCC(C)NC(=O)CSc1ccc(S(=O)(=O)N2CCN(Cc3ccccc3)CC2)cn1 (configuration not stated)
[6]
  CC50: > 40 µM (active)

## COc1cccc(C(=O)Nc2cc(C(F)(F)F)ccc2Cl)c1
Cytochrome P450 2D6
  AC50: 28.2 µM (inconclusive)
Cytochrome P450 2C9
  AC50: inconclusive

## COc1ccc(-c2cc([N+](=O)[O-])ccc2OCC(=O)N(C)CC(=O)Nc2ccc(C)cc2)cc1
Fatty acid synthase [1]
  IC50: 7.56 µM (active)
Fatty acid synthase [2]
  IC50: 7.78 µM (active)

## CC[C@@]1(C(=O)OC)N[C@H](CN(C)C(=O)Nc2ccc(F)cc2)[C@@H]2C(=O)N(Cc3ccccc3)C(=O)[C@@H]21
[11]
  AC50: 0.401 µM (active)
[12]
  AC50: 0.378 µM (active)
[13]
  AC50: 0.744 µM (active)
[14]
  AC50: 0.614 µM (active)

## C[C@H]1CCCCO[C@H](CN(C)C(=O)Nc2ccc(F)cc2)[C@@H](C)CN([C@@H](C)CO)C(=O)c2cc(NC(=O)Nc3ccc(C(F)(F)F)cc3)ccc2O1
Paired box protein Pax-8
  AC50: 8.09 µM (active)
[17]
  AC50: 58.3 µM (active)

## C[C@H]1CN([C@@H](C)CO)C(=O)c2c(c3ccccc3n2C)-c2ccccc2CO[C@H]1CN(C)S(=O)(=O)c1ccc(C(F)(F)F)cc1
Paired box protein Pax-8
  AC50: 3.69 µM (active)
[17]
  AC50: 50.8 µM (active)
[18]
  AC50: 0.251 µM (active)
[19]
  AC50: 32.1 µM (active)
[20]
  AC50: < 0.3 µM (active)
[21]
  AC50: 0.23 µM (active)
[22]
  AC50: 0.216 µM (active)

## CC(C)CC#Cc1ccc2c(c1)O[C@H](CN(C)Cc1ccc(F)cc1)[C@H](C)CN([C@H](C)CO)S2(=O)=O
Paired box protein Pax-8
  AC50: 23.1 µM (active)
[17]
  AC50: 61.2 µM (active)

## Nc1nnc(CC(=O)N/N=C/c2cccc([N+](=O)[O-])c2)s1
Cytochrome P450 1A2
  AC50: 31.6 µM (inconclusive)
Cytochrome P450 2C9
  AC50: inconclusive

## Cc1cc(C(=O)N/N=C/c2cc([N+](=O)[O-])ccc2O)c2ccccc2n1
Nonstructural protein 1
  IC50: 5.29 µM (active)
Fatty acid synthase [1]
  IC50: 3.18 µM (active)
Fatty acid synthase [2]
  IC50: 2.75 µM (active)

## CCO/C(O)=C/c1nc2ccccc2sc1=O
[11]
  AC50: 5.7 µM (active)
[12]
  AC50: 5.06 µM (active)
[13]
  AC50: 5.57 µM (active)
[14]
  AC50: 3 µM (active)

## CC1(C)CC2C1CCC1(C)OC1CCC2(C)O (configuration not stated) [2-HYDROXY-5 (6)EPOXY-TETRAHYDROCARYOPHYLLENE]
Cytochrome P450 3A4 [3]
  AC50: 25.1 µM (inconclusive)

## C=C[C@H]1CN2CC[C@H]1C[C@H]2c1[nH]c2ccccc2c1CCO [CINCHONAMINE]
Cytochrome P450 3A4 [3]
  AC50: 31.6 µM (inconclusive)
